The values that follow come from US4450269A, “Mono-5-substituted-3-chloro-4H-1,2,6-thiadiazin-4-one antifungal agents” (FMC Corporation, priority 1980, dated 1984).

Assay in all cases: Spore germination test
Type in all cases: cell-based

The test system of assay [1] is Alternaria solani. The note with it: AS, 48 hours. Put shortly: (§1)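 Compound was delivered in acetone into water agar at final 40, 10, 2.5 and 1 ppm. Alternaria solani and Botrytis cinerea spores were applied as sterile-water suspensions, while Erysiphe polygoni and Uromyces phaseoli spores were brushed on from infected leaves. After 48 h at 24° C., percentage germination was converted to a rating.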

The test system of assay [2] is Uromyces phaseoli. The note with it: UP, 48 hours. The essentials: as §1
For assay [3], the system named is Botrytis cinerea. The note with it: BC, 48 hours. Put shortly: as §1

As for `Cc1ccc(Cl)c(Oc2nsnc(Cl)c2=O)c1` [Compound 56, 3-chloro-5-[(2-chloro-5-methyl)phenoxy]-4H--1,2,6-thiadiazin-4-one], the “Spore Germination Rating” value in assay [1] (1.0 ppm) is given as 4 (80-100); in assay [1] (2.5 ppm) it was 3 (60-80); in assay [1] (10 ppm) it was 0 (0-10); in assay [1] (40 ppm), 0 (0-10); in assay [2] (1.0 ppm) it was 1 (10-40); in assay [2] (2.5 ppm), 0 (0-10). Also, the “Spore Germination Rating” value in assay [2] (10 ppm) is on record as 0 (0-10); in assay [2] (40 ppm), 0 (0-10); in assay [3] (1.0 ppm), 4 (80-100); in assay [3] (2.5 ppm), 0 (0-10); in assay [3] (10 ppm) it was 0 (0-10); in assay [3] (40 ppm) it was 0 (0-10).

Regarding `Cc1ccc(Oc2nsnc(Cl)c2=O)c(Br)c1` [Compound 57, 3-[(2-bromo-4-methyl)-phenoxy]-5-chloro-4H--1,2,6-thiadiazin-4-one], the “Spore Germination Rating” value in assay [1] (1.0 ppm) is listed as 4 (80-100); in assay [1] (2.5 ppm), 2 (40-60); in assay [1] (10 ppm), 0 (0-10); in assay [1] (40 ppm), 0 (0-10); in assay [2] (1.0 ppm), 0 (0-10); in assay [2] (2.5 ppm) it was 0 (0-10). Also, the “Spore Germination Rating” value was 0 (0-10) in assay [2] (10 ppm); 0 (0-10) in assay [2] (40 ppm); 3 (60-80) in assay [3] (1.0 ppm); 1 (10-40) in assay [3] (2.5 ppm); 0 (0-10) in assay [3] (10 ppm); 0 (0-10) in assay [3] (40 ppm).

In the case of `Cc1cc(Cl)c(Oc2nsnc(Cl)c2=O)cc1C` [Compound 58, 3-chloro-5-[(2-chloro-4,5-dimethyl)phenoxy]-4H--1,2,6-thiadiazin-4-one], the “Spore Germination Rating” value in assay [1] (1.0 ppm) was 4 (80-100); in assay [1] (2.5 ppm), 3 (60-80); in assay [1] (10 ppm) it was 0 (0-10); in assay [1] (40 ppm), 0 (0-10); in assay [2] (1.0 ppm), 2 (40-60); in assay [2] (2.5 ppm) it was 0 (0-10). The “Spore Germination Rating” value in assay [2] (10 ppm) is on record as 0 (0-10); in assay [2] (40 ppm), 0 (0-10); in assay [3] (1.0 ppm) it was 3 (60-80); in assay [3] (2.5 ppm), 0 (0-10); in assay [3] (10 ppm) it was 0 (0-10); in assay [3] (40 ppm) it was 0 (0-10).

Take `Cc1cc(Oc2nsnc(Cl)c2=O)cc(C)c1Cl` [Compound 59, 3-chloro-5-[(4-chloro-3,5-dimethyl)phenoxy]-4H--1,2,6-thiadiazin-4-one]: the “Spore Germination Rating” value is 4 (80-100) in assay [1] (1.0 ppm); 4 (80-100) in assay [1] (2.5 ppm); 4 (80-100) in assay [1] (10 ppm); 4 (80-100) in assay [1] (40 ppm); 2 (40-60) in assay [2] (1.0 ppm); 2 (40-60) in assay [2] (2.5 ppm). The “Spore Germination Rating” value in assay [2] (10 ppm) is given as 0 (0-10); in assay [2] (40 ppm), 0 (0-10); in assay [3] (1.0 ppm), 4 (80-100); in assay [3] (2.5 ppm), 4 (80-100); in assay [3] (10 ppm) it was 4 (80-100); in assay [3] (40 ppm), 3 (60-80).

Consider `Cc1cc(Oc2nsnc(Cl)c2=O)cc(C)c1Br` [Compound 60, 3-[(4-bromo-3,5-dimethyl)-phenoxy]-5-chloro-4H--1,2,6-thiadiazin-4-one], for which the “Spore Germination Rating” value in assay [1] (1.0 ppm) is 4 (80-100); in assay [1] (2.5 ppm), 4 (80-100); in assay [1] (10 ppm), 4 (80-100); in assay [1] (40 ppm) it was 3 (60-80); in assay [2] (1.0 ppm), 0 (0-10); in assay [2] (2.5 ppm), 0 (0-10). For the same compound, the “Spore Germination Rating” value in assay [2] (10 ppm) was 0 (0-10); in assay [2] (40 ppm) it was 0 (0-10); in assay [3] (1.0 ppm) it was 4 (80-100); in assay [3] (2.5 ppm), 3 (60-80); in assay [3] (10 ppm), 3 (60-80); in assay [3] (40 ppm), 3 (60-80).

Take `COc1cc(Oc2nsnc(Cl)c2=O)cc(OC)c1C(C)=O` [Compound 61, 3-[(4-acetyl-3,5-dimethoxy)-phenoxy]-5-chloro-4H--1,2,6-thiadiazin-4-one]: the “Spore Germination Rating” value in assay [1] (1.0 ppm) is listed as 4 (80-100); in assay [1] (2.5 ppm), 3 (60-80); in assay [1] (10 ppm), 2 (40-60); in assay [1] (40 ppm), 2 (40-60); in assay [2] (1.0 ppm) it was 2 (40-60); in assay [2] (2.5 ppm), 1 (10-40). In addition, the “Spore Germination Rating” value was 2 (40-60) in assay [2] (10 ppm); 0 (0-10) in assay [2] (40 ppm); 4 (80-100) in assay [3] (1.0 ppm); 4 (80-100) in assay [3] (2.5 ppm); 3 (60-80) in assay [3] (10 ppm); 2 (40-60) in assay [3] (40 ppm).
